This passage reports IC50 results from BindingDB's records for PubMed 35247754 (China Pharmaceutical University, 2022).

In experiment [1] the target is T1, Sentrin-specific protease 1 (Homo sapiens, UniProt Q9P0U3).
T1 sequence (Q9P0U3 whole entry): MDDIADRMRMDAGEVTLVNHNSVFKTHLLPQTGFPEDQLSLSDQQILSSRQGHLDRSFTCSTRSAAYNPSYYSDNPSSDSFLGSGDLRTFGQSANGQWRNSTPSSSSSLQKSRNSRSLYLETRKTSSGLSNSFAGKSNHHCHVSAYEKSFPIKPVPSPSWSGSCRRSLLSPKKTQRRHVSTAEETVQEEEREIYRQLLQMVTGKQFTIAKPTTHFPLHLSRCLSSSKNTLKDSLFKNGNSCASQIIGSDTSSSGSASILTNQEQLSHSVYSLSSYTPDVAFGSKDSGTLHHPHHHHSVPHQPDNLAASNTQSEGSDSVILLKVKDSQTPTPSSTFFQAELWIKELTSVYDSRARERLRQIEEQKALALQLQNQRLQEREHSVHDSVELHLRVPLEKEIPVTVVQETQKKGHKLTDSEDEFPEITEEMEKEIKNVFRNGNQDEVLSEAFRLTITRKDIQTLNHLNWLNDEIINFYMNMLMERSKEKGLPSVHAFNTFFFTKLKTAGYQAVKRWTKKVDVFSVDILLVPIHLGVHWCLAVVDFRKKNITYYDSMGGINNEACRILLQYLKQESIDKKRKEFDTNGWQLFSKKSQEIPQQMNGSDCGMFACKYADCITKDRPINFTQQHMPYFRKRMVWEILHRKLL
Kind of experiment: Inhibition of human SENP1 using AMC-tagged SUMO1 as substrate incubated for 10 mins by fluorescence based analysis.

Experiment [2] concerns the target T2, Sentrin-specific protease 2 (Homo sapiens, UniProt Q9HC62).
T2 sequence (Q9HC62 whole entry): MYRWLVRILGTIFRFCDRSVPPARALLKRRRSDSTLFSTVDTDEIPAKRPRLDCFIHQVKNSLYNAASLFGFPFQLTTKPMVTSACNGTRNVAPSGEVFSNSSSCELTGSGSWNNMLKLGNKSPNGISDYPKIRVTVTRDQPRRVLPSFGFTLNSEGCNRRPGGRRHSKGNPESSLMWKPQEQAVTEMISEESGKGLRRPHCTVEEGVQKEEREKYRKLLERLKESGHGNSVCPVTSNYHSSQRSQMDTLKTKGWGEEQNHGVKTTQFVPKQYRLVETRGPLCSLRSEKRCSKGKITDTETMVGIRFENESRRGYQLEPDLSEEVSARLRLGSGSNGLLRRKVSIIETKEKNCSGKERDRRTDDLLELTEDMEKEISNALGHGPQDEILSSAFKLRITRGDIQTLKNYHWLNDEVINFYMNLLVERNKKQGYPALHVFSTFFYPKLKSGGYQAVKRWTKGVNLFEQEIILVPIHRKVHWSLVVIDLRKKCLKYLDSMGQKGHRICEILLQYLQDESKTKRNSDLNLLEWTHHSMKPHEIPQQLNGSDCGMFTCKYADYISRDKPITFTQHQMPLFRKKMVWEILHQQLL
Kind of experiment: Inhibition of human SENP2 using AMC-tagged SUMO1 as substrate incubated for 10 mins by fluorescence based analysis.

Experiment [3] has as its target T3, Sentrin-specific protease 6 (Homo sapiens, UniProt Q9GZR1).
T3 sequence (Q9GZR1 whole entry): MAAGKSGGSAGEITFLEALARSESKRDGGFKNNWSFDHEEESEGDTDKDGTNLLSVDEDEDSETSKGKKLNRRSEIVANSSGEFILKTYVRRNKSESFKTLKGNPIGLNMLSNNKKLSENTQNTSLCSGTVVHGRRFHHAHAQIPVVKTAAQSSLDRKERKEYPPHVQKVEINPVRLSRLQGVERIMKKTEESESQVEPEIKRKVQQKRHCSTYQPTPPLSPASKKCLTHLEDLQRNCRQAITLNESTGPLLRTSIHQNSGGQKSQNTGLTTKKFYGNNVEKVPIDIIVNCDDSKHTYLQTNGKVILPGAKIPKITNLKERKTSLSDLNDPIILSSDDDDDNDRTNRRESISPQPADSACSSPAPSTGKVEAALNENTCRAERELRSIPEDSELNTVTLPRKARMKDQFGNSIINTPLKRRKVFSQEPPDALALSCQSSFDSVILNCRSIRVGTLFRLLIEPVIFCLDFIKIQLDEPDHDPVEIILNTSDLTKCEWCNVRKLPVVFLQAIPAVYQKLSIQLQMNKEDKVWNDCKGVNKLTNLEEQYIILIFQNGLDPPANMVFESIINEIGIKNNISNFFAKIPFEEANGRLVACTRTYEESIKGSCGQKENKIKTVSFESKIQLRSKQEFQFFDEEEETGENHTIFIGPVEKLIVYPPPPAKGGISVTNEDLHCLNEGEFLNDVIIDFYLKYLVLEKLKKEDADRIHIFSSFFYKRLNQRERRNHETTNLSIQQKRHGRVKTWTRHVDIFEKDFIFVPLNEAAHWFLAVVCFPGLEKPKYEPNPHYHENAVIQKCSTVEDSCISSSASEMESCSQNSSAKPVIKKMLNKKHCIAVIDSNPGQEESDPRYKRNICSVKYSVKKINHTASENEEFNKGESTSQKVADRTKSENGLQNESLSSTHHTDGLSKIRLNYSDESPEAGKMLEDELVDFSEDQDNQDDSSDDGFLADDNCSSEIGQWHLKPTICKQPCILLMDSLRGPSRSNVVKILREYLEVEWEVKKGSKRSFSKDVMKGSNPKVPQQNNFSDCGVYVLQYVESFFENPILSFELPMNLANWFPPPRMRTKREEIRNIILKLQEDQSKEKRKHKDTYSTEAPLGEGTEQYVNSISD
Kind of experiment: Inhibition of human SENP6 using AMC-tagged SUMO1 as substrate incubated for 10 mins by fluorescence based analysis.

For the compound `COC1=C(N)C(=O)c2nc(-c3nc(C(=O)O)c(C)c(-c4ccc(OC)c(OC)c4O)c3N)ccc2C1=O` [CHEBI:9287], the results for the IC50 in experiment [1], in experiment [2] and in experiment [3] were 0.52 µM, 6.9 µM and 5.2 µM, respectively.
